The text below walks through data of PubChem BioAssay AID1259411 (Chemical Carcinogenesis Research Information System (CCRIS), 2018).

Activity calls are given as the source filed them. How the calls were made is not given here.

The test system of the series is rodent carcinogenicity bioassays, tumor incidence. The series can be described thus: CCRIS carcinogenicity studies. An outline of the steps: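 Archive of carcinogenicity, mutagenicity, tumor promotion and tumor inhibition results drawn from journals, NCI reports and other sources, expert-reviewed; covers 1985-2011 and is no longer updated.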

On to `C=COC(C)=O`, for which the carcinogen call runs as follows: (Species: MOUSE, Strain/Sex: CRL:CD-1(ICR)BR/FEMALE, Route: INHALATION, Dose: 0, 50, 200, 600 PPM 6 HR/D 5 D/WK FOR 104 WK (STUDY DURATION: 104 WK), Dose: 0, 50, 200, 600 PPM 6 HR/D 5 D/WK FOR 104 WK (STUDY DURATION: 104 WK)) “inactive; negative”; (Species: MOUSE, Strain/Sex: CRL:CD-1(ICR)BR/MALE, Route: INHALATION, Dose: 0, 50, 200, 600 PPM 6 HR/D 5 D/WK FOR 104 WK (STUDY DURATION: 104 WK), Dose: 0, 50, 200, 600 PPM 6 HR/D 5 D/WK FOR 104 WK (STUDY DURATION: 104 WK)) “inactive; negative”; (Species: MOUSE, Strain/Sex: SWISS/FEMALE, Route: ORAL, Dose: 0, 1000, 5000 PPM IN DRINKING WATER ADMINISTERED FOR DURATION OF STUDY TO OFFSPRING OF MOTHERS EXPOSED TO THE SAME DOSES, Dose: 0, 1000, 5000 PPM IN DRINKING WATER ADMINISTERED FOR DURATION OF STUDY TO OFFSPRING OF MOTHERS EXPOSED TO THE SAME DOSES, Tumor Site: Type of Lesion: ZYMBAL GLAND: CARCINOMA, ORAL CAVITY: SQUAMOUS CELL CARCINOMA, TONGUE: SQUAMOUS CELL CARCINOMA, ESOPHAGUS: SQUAMOUS CELL, Tumor Site: Type of Lesion: ZYMBAL GLAND: CARCINOMA, ORAL CAVITY: SQUAMOUS CELL CARCINOMA, TONGUE: SQUAMOUS CELL CARCINOMA, ESOPHAGUS: SQUAMOUS CELL) “active; positive”; (Species: MOUSE, Strain/Sex: SWISS/FEMALE, Route: ORAL, Dose: 0, 1000, 5000 PPM IN DRINKING WATER FOR DURATION OF STUDY (STUDY DURATION:LIFE SPAN), Dose: 0, 1000, 5000 PPM IN DRINKING WATER FOR DURATION OF STUDY (STUDY DURATION:LIFE SPAN), Tumor Site: Type of Lesion: TONGUE: SQUAMOUS CELL CARCINOMA, ESOPHAGUS: SQUAMOUS CELL CARCINOMA, LUNG: ADENOMA OR ADENOCARCINOMA, UTERUS: TUMOR, Tumor Site: Type of Lesion: TONGUE: SQUAMOUS CELL CARCINOMA, ESOPHAGUS: SQUAMOUS CELL CARCINOMA, LUNG: ADENOMA OR ADENOCARCINOMA, UTERUS: TUMOR) “active; positive”; (Species: MOUSE, Strain/Sex: SWISS/MALE, Route: ORAL, Dose: 0, 1000, 5000 PPM IN DRINKING WATER FOR DURATION OF STUDY (STUDY DURATION: LIFE SPAN), Dose: 0, 1000, 5000 PPM IN DRINKING WATER FOR DURATION OF STUDY (STUDY DURATION: LIFE SPAN)) “inactive; negative”; (Species: RAT, Strain/Sex: CRL:CD(SD)BR/FEMALE, Route: INHALATION, Dose: 0, 50, 200, 600 PPM 6 HR/D 5 D/WK FOR 104 WK (STUDY DURATION: 104 WK), Dose: 0, 50, 200, 600 PPM 6 HR/D 5 D/WK FOR 104 WK (STUDY DURATION: 104 WK)) “inactive; negative”. The carcinogen call is, setting by setting: (Species: RAT, Strain/Sex: CRL:CD(SD)BR/FEMALE, Route: ORAL, Dose: 0, 200, 1000, 5000 PPM IN DRINKING WATER FOR 104 WK ADMINISTERED TO OFFSPRING OF RATS ADMINISTERED THE SAME DOSES BEGINN, Dose: 0, 200, 1000, 5000 PPM IN DRINKING WATER FOR 104 WK ADMINISTERED TO OFFSPRING OF RATS ADMINISTERED THE SAME DOSES BEGINN) “inactive; negative”; (Species: RAT, Strain/Sex: CRL:CD(SD)BR/MALE, Route: INHALATION, Dose: 0, 50, 200, 600 PPM 6 HR/D 5 D/WK FOR 104 WK (STUDY DURATION: 104 WK), Dose: 0, 50, 200, 600 PPM 6 HR/D 5 D/WK FOR 104 WK (STUDY DURATION: 104 WK), Tumor Site: Type of Lesion: NASAL CAVITY: TUMOR) “active; positive”; (Species: RAT, Strain/Sex: CRL:CD(SD)BR/MALE, Route: ORAL, Dose: 0, 200, 1000, 5000 PPM IN DRINKING WATER FOR 104 WK ADMINISTERED TO OFFSPRING OF RATS ADMINISTERED THE SAME DOSES BEGINN, Dose: 0, 200, 1000, 5000 PPM IN DRINKING WATER FOR 104 WK ADMINISTERED TO OFFSPRING OF RATS ADMINISTERED THE SAME DOSES BEGINN) “inactive; negative”; (Species: RAT, Strain/Sex: F344/FEMALE, Route: ORAL, Dose: 0, 1000, 2500 MG/L IN DRINKING WATER 5 D/WK FOR 100 WK (STUDY DURATION: 130 WK), Dose: 0, 1000, 2500 MG/L IN DRINKING WATER 5 D/WK FOR 100 WK (STUDY DURATION: 130 WK), Tumor Site: Type of Lesion: UTERUS: CARCINOMA, THYROID: C-CELL ADENOMA, LIVER: NEOPLASTIC NODULE, Tumor Site: Type of Lesion: UTERUS: CARCINOMA, THYROID: C-CELL ADENOMA, LIVER: NEOPLASTIC NODULE) “active; positive”; (Species: RAT, Strain/Sex: F344/MALE, Route: ORAL, Dose: 0, 1000, 2500 MG/L IN DRINKING WATER 5 D/WK FOR 100 WK (STUDY DURATION: 130 WK), Dose: 0, 1000, 2500 MG/L IN DRINKING WATER 5 D/WK FOR 100 WK (STUDY DURATION: 130 WK)) “inactive; negative”; (Species: SWISS/MALE, Strain/Sex: ORAL, Route: ORAL, Dose: 0, 1000, 5000 PPM IN DRINKING WATER ADMINISTERED FOR DURATION OF STUDY TO OFFSPRING OF MOTHERS EXPOSED TO THE SAME DOSES, Dose: 0, 1000, 5000 PPM IN DRINKING WATER ADMINISTERED FOR DURATION OF STUDY TO OFFSPRING OF MOTHERS EXPOSED TO THE SAME DOSES, Tumor Site: Type of Lesion: ZYMBAL GLAND: CARCINOMA, ORAL CAVITY: SQUAMOUS CELL CARCINOMA, TONGUE: SQUAMOUS CELL CARCINOMA, ESOPHAGUS: SQUAMOUS CELL, Tumor Site: Type of Lesion: ZYMBAL GLAND: CARCINOMA, ORAL CAVITY: SQUAMOUS CELL CARCINOMA, TONGUE: SQUAMOUS CELL CARCINOMA, ESOPHAGUS: SQUAMOUS CELL) “active; positive”.
Take `Cc1cc(-c2ccccc2C)ccc1N=O`: the carcinogen call is “active; positive” (Species: HAMSTER, Strain/Sex: SYRIAN/FEMALE, Route: SUBCUTANEOUS, Dose: 0.15 MMOL/KG IN PEANUT OIL 1/WK FOR 37 WK (TOTAL DOSE 5.6 MMOL/KG), Tumor Site: Type of Lesion: INJECTION SITE: RHABDOMYOSARCOMA, SPINDLE CELL CARCINOMA, PLEIOMORPHIC SARCOMA) and “active; positive” (Species: HAMSTER, Strain/Sex: SYRIAN/MALE, Route: SUBCUTANEOUS, Dose: 0.15 MMOL/KG IN PEANUT OIL 1/WK FOR 37 WK (TOTAL DOSE 5.6 MMOL/KG), Tumor Site: Type of Lesion: INJECTION SITE: RHABDOMYOSARCOMA, PLEIOMORPHIC SARCOMA).
Take `O=S(=O)(O)c1c(N=Nc2c(O)ccc3ccccc23)ccc2ccccc12`: the carcinogen call is “inactive; negative” (Species: MOUSE, Strain/Sex: ICR/FEMALE, Route: DERMAL, Dose: 0, 1 MG IN 0.1 ML DISTILLED WATER 2/WK FOR A MEAN TOTAL DOSE OF 128.1 MG (STUDY DURATION: 18 MO)) and “inactive; negative” (Species: MOUSE, Strain/Sex: ICR/MALE, Route: DERMAL, Dose: 0, 1 MG IN 0.1 ML DISTILLED WATER 2/WK FOR A MEAN TOTAL DOSE OF 128.1 MG (STUDY DURATION: 18 MO)).
Regarding `CNNC`, the carcinogen call is, setting by setting: (Species: HAMSTER, Route: INTRAMUSCULAR, Tumor Site: Type of Lesion: STOMACH, LIVER, INTESTINES, Tumor Site: Type of Lesion: STOMACH, LIVER, INTESTINES) “active; positive”; (Species: HAMSTER, Route: ORAL, Tumor Site: Type of Lesion: BLOOD VESSELS, INTESTINES, LIVER, Tumor Site: Type of Lesion: BLOOD VESSELS, INTESTINES, LIVER) “active; positive”; (Species: MONKEY, Strain/Sex: CEBUS APELLA/MALE, Route: SUBCUTANEOUS, Dose: 0, 25 MG/KG BW 1/WK FOR 16 WK (STUDY DURATION: 20 MO)) “inactive; negative”; (Species: MOUSE, Route: ORAL, Tumor Site: Type of Lesion: LUNG, BLOOD VESSELS) “active; positive”; (Species: MOUSE, Route: SUBCUTANEOUS, Tumor Site: Type of Lesion: COLON, INTESTINES) “active; positive”; (Species: RAT, Route: ORAL, Tumor Site: Type of Lesion: INTESTINES, LIVER) “active; positive”. The carcinogen call was “active; positive” (Species: RAT, Route: SUBCUTANEOUS, Tumor Site: Type of Lesion: COLON, INTESTINES, LIVER, Tumor Site: Type of Lesion: COLON, INTESTINES, LIVER); “active; positive” (Species: RAT, Strain/Sex: WISTAR/FEMALE, Route: SUBCUTANEOUS, Dose: 0, 200 MG/KG BW ONCE (STUDY DURATION: 1 YR), Tumor Site: Type of Lesion: KIDNEY: TUMOR); “active; positive” (Species: RAT, Strain/Sex: WISTAR/MALE, Route: SUBCUTANEOUS, Dose: 30 MG/KG IN NACL-EDTA 1/WK FOR 10 OR 15 WK, Tumor Site: Type of Lesion: INTESTINES: CARCINOMA (INVASIVE, INCLUDING MUCIN AND NONMUCIN PRODUCING), CARCINOMA (NONINVASIVE)).
For the compound `CN1CCC[C@H]1c1cccnc1`, the carcinogen call (Species: RAT, Strain/Sex: F344/FEMALE, Route: INHALATION, Dose: 0, 500 UG/M3 20 HR/D 5 D/WK FOR 2 YR (STUDY DURATION: 2 YR)) was “inactive; negative”.
